Data on 14 compounds can be found in US4795812A, “4-substituted-6-aryl-pyrimidine compounds” (The Upjohn Company, priority 1986, dated 1989).

What all share (format): cell-based
In assay [1] the test system is L-1210 mouse leukemia cells. Nature of the assay: L-1210 tube dilution assay, inhibition of mouse leukemia cell growth in vitro. The following applies: for IC50 / IC90: Mus musculus; for inhibition of growth of L-1210 cells (in words): in vitro. The text has this: ID50 and ID90 refer to the concentration of compound needed to inhibit cell growth by 50 and 90 percent, respectively.

For the next assay, the system named is P. vulgaris. Nature of the assay: In vitro disk plate assay, Proteus vulgaris. The following applies: 18 h; Proteus vulgaris; above-identified in vitro disk plate assay; medium not given. Here is the method: (§1) The antibacterial spectrum of 4-(1-azindinyl)-6-phenyl-2-pyrimidinamine was determined in an in vitro disk plate assay. The assay procedure is as follows:
(§2) A solution of 4-(1-aziridinyl)-6-phenyl-2-pyrimidinamine was prepared at 1 mg/ml in distilled water. Paper assay disks (1/2 inch) were dripped into the solution and spotted on seeded agar trays.

The subject of a further assay is test organisms. Nature of the assay: In vitro disk plate assay, test organisms other than Proteus vulgaris. Here is the method:
as §1, §2

[2] abbreviates: L1210 cells in vitro, 50 percent inhibition of cell growth, read-out: L1210 ID50.
The mark [3] stands for this setting: L1210 cells in vitro, 90 percent inhibition of cell growth, read-out: L1210 ID90.

SMILES strings stand for the structures. In brackets after ≈: the same amount, converted by molar mass. Like-named read-outs stand apart in the source and are kept apart here.

Take `Nc1nc(Cl)c(I)c(-c2ccccc2)n1` [drawing 9]: in assay [1] (setting [2]), the IC50 is 1.8 µg/mL (≈ 5.43 µM). Also, in assay [1] (setting [3]), the IC90 was 3.9 µg/mL (≈ 11.8 µM). Turning to `Nc1nc(Cl)cc(-c2ccccc2)n1` [drawing 11], the IC50 in assay [1] (setting [2]) amounted to 8.2 µg/mL (≈ 39.9 µM). In assay [1] (setting [3]), the IC90 was found to be 19 µg/mL (≈ 92.4 µM).

Consider `Nc1nc(NCCN2CC2)c(F)c(-c2ccccc2)n1` [Example 5, N'-[2-(1-aziridyl)ethyl]-5-fluoro-6-phenyl-2,4-pyrimidinediamine], for which, in assay [1], the “inhibition of growth of L-1210 cells (in words)” value (“inhibition … (in words)” for short) was “inhibit the growth of L-1210 mouse leukemia cells in vitro”. As for `Nc1nc(Cl)c(F)c(-c2ccccc2)n1` [Example 4, 4-chloro-5-fluoro-6-phenyl-2-pyrimidinamine], the “inhibition … (in words)” value in assay [1] is reported as “inhibit the growth of L-1210 mouse leukemia cells in vitro”. In the case of `Nc1nc(Cl)c(Cl)c(-c2ccccc2)n1` [Example 7, 4,5-dichloro-6-phenyl-2-pyrimidinamine], the “inhibition … (in words)” value in assay [1] is given as “inhibit the growth of L-1210 mouse leukemia cells in vitro”. With `Nc1nc(Cl)c(I)c(-c2ccccc2)n1` [Example 8, 4-chloro-5-iodo-6-phenyl-2-pyrimidinamine], in assay [1], the “inhibition … (in words)” value is “inhibit the growth of L-1210 mouse leukemia cells in vitro”. In the case of `Nc1nc(-c2ccccc2)c(Br)c(N2CC2)n1` [drawing 5], the IC50 in assay [1] (L1210, read-out: L1210 ID50) turned out to be 1.2 µg/mL (≈ 4.12 µM). For the same compound, the IC90 in assay [1] (L1210, read-out: L1210 ID90) was 3.2 µg/mL (≈ 11 µM). For the compound `Nc1nc(Cl)c(F)c(-c2ccccc2)n1` [drawing 7], the IC50 in assay [1] (setting [2]) came out at 0.18 µg/mL (≈ 0.805 µM). In addition, in assay [1] (setting [3]), the IC90 came out at 0.55 µg/mL (≈ 2.46 µM). For the compound `Nc1nc(-c2ccccc2)c(Br)c(N2CC2)n1` [Example 3, 4-(1-aziridyl)-5-bromo-6-phenyl-2-pyrimidinamine], in assay [1], the “inhibition … (in words)” value is reported as “inhibit the growth of L-1210 mouse leukemia cells in vitro”.

With `Nc1nc(Cl)c(Br)c(-c2ccccc2)n1` [Example 6, 5-bromo-4-chloro-6-phenyl-2-pyrimidinamine], in assay [1], the “inhibition … (in words)” value is on record as “inhibit the growth of L-1210 mouse leukemia cells in vitro”. On to `Nc1nc(NCCN2CC2)c(F)c(-c2ccccc2)n1` [drawing 6], for which the IC50 in assay [1] (L1210, read-out: L1210 ID50) amounted to 0.78 µg/mL (≈ 2.85 µM). In addition, in assay [1] (L1210, read-out: L1210 ID90), the IC90 worked out at 2.1 µg/mL (≈ 7.68 µM). On to `Nc1nc(Cl)cc(-c2ccccc2)n1` [Example 1, 4-chloro-6-phenyl-2-pyrimidinamine], for which the zone of inhibition at 1000 µg/mL with P. vulgaris came to 20 mm. Moreover, in assay [1], the “inhibition … (in words)” value is listed as “inhibit the growth of L-1210 mouse leukemia cells in vitro”. In addition, in the assay on test organisms, the “antibacterial activity against the other test organisms (in words)” value is “No other antibacterial activity against the test organisms was observed”.

Turning to `Nc1nc(Cl)c(Br)c(-c2ccccc2)n1` [drawing 10], the IC50 in assay [1] (setting [2]) was determined as 0.64 µg/mL (≈ 2.25 µM). In addition, the IC90 in assay [1] (setting [3]) is 1.6 µg/mL (≈ 5.62 µM). In the case of `Nc1nc(Cl)c(Cl)c(-c2ccccc2)n1` [drawing 8], the IC50 in assay [1] (setting [2]) was 0.91 µg/mL (≈ 3.79 µM). For the same compound, the IC90 in assay [1] (setting [3]) came to 2.1 µg/mL (≈ 8.75 µM).
